{
  "source": "paper PMC10258454",
  "about": "(Nature, 2021)",
  "molecules": {"B1": {"name": "AcbK (acarbose kinase of Actinoplanes sp. SE50/110) (enzyme, UniProt Q8RMD4 1-299, looked up)", "chain": "MSEHTDVLVLGGAGVDTIAYVPELPLPFQDSYVVAAIEPRAGQTGDNVALGLHTLGLRTMHVDVLGDDPEGDLVRAFHTRHGLPFAALPTAAGTKRAVNLVGPDGRRLSLWDGSREAEEDRYPAALIAAHTAHARHVHVCITPPGQHVFGQLNDLPVTVSTDLHNWDGAYEGFEVYAFNADLVFLSATALTDVAATMRRVIDRGRARLVVATDGAHGGSVLVRGETEVRRYAAVAPEAPVVDSNGAGDAFVSGFLFGHLAGEPLETCLRYGAIAGAYACTIPATRAGAIDRAALLRPAA"}, "B2": {"name": "Mak1 (microbiome-derived acarbose kinase 1) (enzyme)", "chain": "MTQADVLVVGGVGVDHIVRVKSLPLPVVDSMMVPPIVTVVGHTGNGVALGVHALGRASAMADVIGDDAEGRLIQDAYSAAGIPITFVTHISGTRRSVNLVTEEGQRMSLYDPRHPFEFIPDPSLWREGIERSRHVHVSIMNWARYALRDAVAAGRSTSTDLHDWDGVADYHKDFAYGADYVFVSAAALRDESGVVADVFARGRAQFVVVMAGSEGARVWRRSDELPLRISPISIPGRPVVDSNGAGDSFVAAFLCHYLDHGDIFGAARAGAVGGAWACGTLGTHTSFVDVETLERLLAR"}},
  "key": {"AcbK [1]": {"molecular_target": "T1, AcbK (Actinoplanes sp. SE50/110, UniProt Q8RMD4)", "assay": "X-ray crystallography, […] Å", "assay_type": "binding", "conditions": "ATP site; MnCl2, acarbose present"}, "AcbK [2]": {"molecular_target": "T1, AcbK", "conditions": "2 mM ATP as phosphate donor, MgCl2, pH 8, 37 °C"}, "[3]": {"molecular_target": "T2, human salivary amylase (HSA) (Homo sapiens, UniProt P0DUB6)", "T2 sequence (P0DUB6 16-511)": "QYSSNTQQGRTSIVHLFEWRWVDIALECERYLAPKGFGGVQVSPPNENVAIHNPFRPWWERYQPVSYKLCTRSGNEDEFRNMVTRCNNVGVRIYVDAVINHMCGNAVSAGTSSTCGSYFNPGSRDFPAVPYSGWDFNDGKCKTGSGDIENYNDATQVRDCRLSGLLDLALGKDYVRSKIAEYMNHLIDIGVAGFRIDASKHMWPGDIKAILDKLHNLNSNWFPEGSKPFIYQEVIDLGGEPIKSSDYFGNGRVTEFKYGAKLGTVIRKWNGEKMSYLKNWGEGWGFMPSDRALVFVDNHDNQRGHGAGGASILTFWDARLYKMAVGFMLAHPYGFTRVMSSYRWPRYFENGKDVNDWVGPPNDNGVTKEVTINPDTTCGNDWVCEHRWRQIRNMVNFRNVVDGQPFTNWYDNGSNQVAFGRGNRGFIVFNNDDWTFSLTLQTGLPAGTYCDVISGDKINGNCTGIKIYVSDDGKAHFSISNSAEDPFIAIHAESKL", "assay": "colorimetric amylase assay, […] nm", "assay_type": "biochemical", "conditions": "30 °C"}, "[4]": {"molecular_target": "T3, porcine pancreatic amylase (PPA) (Sus scrofa, UniProt P00690)", "T3 sequence (P00690 16-511)": "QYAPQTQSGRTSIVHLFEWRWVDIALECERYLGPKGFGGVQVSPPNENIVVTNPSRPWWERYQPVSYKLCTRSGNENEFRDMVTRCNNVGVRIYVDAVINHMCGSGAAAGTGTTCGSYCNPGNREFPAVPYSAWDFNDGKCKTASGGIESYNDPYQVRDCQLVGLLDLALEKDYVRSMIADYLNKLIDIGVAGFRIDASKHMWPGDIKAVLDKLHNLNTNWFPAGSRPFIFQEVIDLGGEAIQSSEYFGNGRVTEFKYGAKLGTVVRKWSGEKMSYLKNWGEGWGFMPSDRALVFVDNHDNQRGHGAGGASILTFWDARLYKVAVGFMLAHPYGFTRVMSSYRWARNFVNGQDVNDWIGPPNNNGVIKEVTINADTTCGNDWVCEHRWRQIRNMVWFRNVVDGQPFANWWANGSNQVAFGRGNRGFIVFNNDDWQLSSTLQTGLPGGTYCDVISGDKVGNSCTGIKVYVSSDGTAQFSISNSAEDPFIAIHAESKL", "assay": "colorimetric amylase assay, […] nm", "assay_type": "biochemical", "conditions": "30 °C"}, "crystal structure": {"molecular_target": "the molecule itself", "assay": "crystal structure"}},
  "data": [
    {"molecule": "Nc1ncnc2c1ncn2[C@@H]1O[C@H](COP(=O)(O)OP(=O)(O)NP(=O)(O)O)[C@@H](O)[C@H]1O", "note": "[AMP-PNP]", "values": [
      {"measurement": "X-ray crystallography, 2.4 Å", "setting": "AcbK [1]", "result": "crystal structure of AcbK bound to acarbose and a non-hydrolysable ATP analogue, adenylyl-imidodiphosphate (AMP-PNP)"}
    ]},
    {"molecule": "Nc1ncnc2c1ncn2[C@@H]1O[C@H](COP(=O)(O)OP(=O)(O)OP(=O)(O)O)[C@@H](O)[C@H]1O", "note": "[ATP]", "values": [
      {"measurement": "HPLC-MS of acarbose phosphorylation", "setting": "AcbK [2]", "result": "we incubated the resulting proteins with ATP and acarbose"}
    ]},
    {"molecule": "CC1OC[C@H]2O[C@H](O[C@H]3[C@H](O)[C@@H](O)[C@@H](O[C@H]4[C@H](O)[C@@H](O)[C@@H](O[C@H]5[C@H](O)[C@@H](O)[C@@H](O[C@H]6[C@H](O)[C@@H](O)[C@@H](O[C@H]7[C@H](O)[C@@H](O)[C@@H](O[C@H]8[C@H](O)[C@@H](O)[C@@H](Oc9ccc([N+](=O)[O-])cc9)O[C@@H]8CO)O[C@@H]7CO)O[C@@H]6CO)O[C@@H]5CO)O[C@@H]4CO)O[C@@H]3CO)[C@H](O)[C@@H](O)[C@@H]2O1", "note": "(stereo partly drawn) [ethylidene-pNP-G7]", "values": [
      {"measurement": "colorimetric amylase assay, 405 nm", "setting": "[3]", "result": "cleavage of an oligosaccharide substrate mimic (ethylidene-pNP-G7)"},
      {"measurement": "colorimetric amylase assay, 405 nm", "setting": "[4]", "result": "cleavage of an oligosaccharide substrate mimic (ethylidene-pNP-G7)"}
    ]},
    {"molecule": "B1", "values": [
      {"measurement": "stoichiometry N", "setting": "crystal structure", "result": 2}
    ]},
    {"molecule": "B2", "values": [
      {"measurement": "stoichiometry N", "setting": "crystal structure", "result": 2}
    ]}
  ]
}
